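How tested: cells in 96-well plates exposed to compound for 48 hours at five concentrations. GI50: concentration for 50% inhibition of growth. At the TGI there is no net growth.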
How the values were obtained:
Assay in all cases: NCI anticancer screen, dose series, 48 h
[1] = test system: 786-0 renal
[2] = test system: A498 renal
[3] = test system: HL-60(TB) leukemia
[4] = test system: IGROV1 ovarian
[5] = test system: K-562 leukemia
[6] = test system: MOLT-4 leukemia
[7] = test system: SF-268 CNS
[8] = test system: SK-OV-3 ovarian
[9] = test system: SW-620 colon
[10] = test system: SR leukemia

COC(=O)CCC(NC(=S)N/N=C(\C)c1ccccn1)C(=O)OC (stereo not given)
TGI [1]: > 100 µM | TGI [2]: > 100 µM | TGI [3]: 53.1 µM | TGI [4]: > 100 µM | TGI [5]: > 100 µM | TGI [6]: > 100 µM | TGI [7]: > 100 µM | TGI [8]: > 100 µM | TGI [9]: > 100 µM

COC(=O)C(C(=O)C(=O)Nc1cccc(O)c1)c1nc2ccc(Cl)cc2[nH]c1=O (stereo not given)
TGI [1]: > 100 µM | TGI [2]: > 100 µM | TGI [3]: > 100 µM | TGI [4]: > 100 µM | TGI [5]: > 100 µM | TGI [6]: > 100 µM | TGI [7]: > 100 µM | TGI [8]: > 100 µM | TGI [9]: > 100 µM

O=C(c1cc(=O)c2ccc(O)cc2o1)c1ccc(Cl)cc1Cl
TGI [1]: > 64.4 µM | TGI [2]: > 100 µM | TGI [3]: > 100 µM | TGI [4]: > 100 µM | TGI [5]: > 35.5 µM | TGI [6]: 22.3 µM | TGI [7]: > 100 µM | TGI [8]: > 100 µM | TGI [9]: > 54.6 µM

CCOc1ccccc1NC(=O)C(=O)CC(=O)C1=C(C)Nc2ccccc2S1
TGI [1]: > 100 µM | TGI [2]: > 100 µM | TGI [3]: > 36.2 µM | TGI [4]: > 100 µM | TGI [5]: > 76.4 µM | TGI [6]: > 69.5 µM | TGI [7]: > 100 µM | TGI [8]: > 100 µM | TGI [9]: > 100 µM

Clc1ccc(-c2nc3c(-c4ccc(Cl)cc4)nc(-c4ccccc4)cn3c2-c2ccc(Cl)cc2)cc1
GI50 [1]: 46.5 µM | TGI [1]: > 50 µM | GI50 [2]: > 50 µM | TGI [2]: > 50 µM | GI50 [3]: > 50 µM | TGI [3]: > 50 µM | GI50 [4]: 20.5 µM | TGI [4]: > 50 µM | GI50 [5]: > 50 µM | TGI [5]: > 50 µM | GI50 [6]: > 50 µM | TGI [6]: > 50 µM | GI50 [7]: > 50 µM | TGI [7]: > 50 µM | GI50 [8]: 24.2 µM | TGI [8]: > 50 µM | GI50 [9]: > 50 µM | TGI [9]: > 50 µM

CC(=O)OC1(C#N)CC2OC1C1C2N1C(=O)c1ccccc1 (stereo not given)
TGI [1]: > 100 µM | TGI [2]: > 100 µM | TGI [3]: > 100 µM | TGI [4]: > 100 µM | TGI [5]: > 100 µM | TGI [6]: > 100 µM | TGI [7]: > 100 µM | TGI [8]: > 100 µM | TGI [9]: > 100 µM

C/C(CN1C(=O)c2ccccc2C1=O)=N\NS(=O)(=O)c1ccccc1
TGI [1]: > 100 µM | TGI [2]: > 100 µM | TGI [3]: > 100 µM | TGI [4]: > 100 µM | TGI [5]: > 100 µM | TGI [6]: > 100 µM | TGI [7]: > 100 µM | TGI [8]: > 100 µM | TGI [9]: > 100 µM

CCOC(=O)C1=C(Nc2ccccc2)OC/C1=N\NC(=O)Cc1ccccc1
TGI [1]: > 50 µM | TGI [2]: > 50 µM | TGI [3]: > 50 µM | TGI [4]: > 50 µM | TGI [5]: > 50 µM | TGI [6]: > 50 µM | TGI [7]: > 50 µM | TGI [8]: > 50 µM | TGI [9]: > 50 µM

NC(=S)N/N=C(/CC(=O)c1ccc([N+](=O)[O-])cc1)C(=O)Nc1ncc([N+](=O)[O-])s1
TGI [1]: > 100 µM | TGI [3]: > 100 µM | TGI [4]: > 100 µM | TGI [6]: > 100 µM | TGI [7]: > 100 µM | TGI [9]: > 100 µM

O=C(c1cc2ccccc2[nH]1)C(O)(c1cc2ccccc2[nH]1)c1cc2ccccc2[nH]1
TGI [1]: > 246 µM | TGI [3]: > 246 µM | TGI [4]: > 246 µM | TGI [5]: > 246 µM | TGI [6]: > 246 µM | TGI [7]: > 246 µM | TGI [8]: > 246 µM | TGI [10]: > 246 µM | TGI [9]: > 246 µM

O=C(CC(=O)N1N=C(n2ccc3ccccc32)CC1c1ccccc1)Nc1cccc(Cl)c1 (stereo not given)
TGI [1]: > 100 µM | TGI [2]: > 100 µM | TGI [3]: > 100 µM | TGI [4]: > 100 µM | TGI [5]: > 100 µM | TGI [6]: > 100 µM | TGI [7]: > 100 µM | TGI [8]: > 100 µM | TGI [9]: > 100 µM

Cc1cc(C)nc(NS(=O)(=O)c2ccc(Nc3c4ccccc4nc4c(C(=O)NCCN(C)C)ccc(Cl)c34)cc2)n1
TGI [1]: 14.7 µM | TGI [3]: 7.6 µM | TGI [4]: 11.7 µM | TGI [5]: 11.7 µM | TGI [7]: 8.11 µM | TGI [10]: 5.46 µM | TGI [9]: 9.04 µM

COC(=O)/C(C#N)=C\N1CCN(C(=O)c2ccco2)C1=S
GI50 [1]: 6.25 µM | TGI [1]: 21.7 µM | GI50 [3]: 6.94 µM | TGI [3]: > 100 µM | GI50 [4]: 6.16 µM | TGI [4]: 26.4 µM | GI50 [5]: 3.68 µM | TGI [5]: > 100 µM | GI50 [6]: 7.41 µM | TGI [6]: > 100 µM | GI50 [7]: 4.83 µM | TGI [7]: 17.9 µM | GI50 [8]: 28.2 µM | TGI [8]: > 100 µM | GI50 [9]: 5.2 µM | TGI [9]: 19.7 µM

C/C(=N/O)C1CC=C(S(=O)(=O)c2ccccc2)C1 (stereo not given)
TGI [1]: > 100 µM | TGI [3]: > 100 µM | TGI [4]: > 100 µM | TGI [5]: > 100 µM | TGI [6]: > 100 µM | TGI [7]: > 100 µM | TGI [8]: > 100 µM | TGI [10]: > 100 µM | TGI [9]: > 100 µM

COc1cc2c(cc1OC)C(CCc1ccc(Cl)cc1)N(C)CC2 (stereo not given)
GI50 [1]: 17.4 µM | TGI [1]: 48.9 µM | GI50 [3]: 17.2 µM | TGI [3]: 44.3 µM | GI50 [4]: 36.9 µM | TGI [4]: > 100 µM | GI50 [5]: 24.7 µM | TGI [5]: 66.1 µM | GI50 [6]: 35.7 µM | TGI [6]: 94.9 µM | GI50 [7]: 35 µM | TGI [7]: > 100 µM | GI50 [8]: 32.2 µM | TGI [8]: > 100 µM | GI50 [10]: 28.4 µM | TGI [10]: 63.4 µM | GI50 [9]: 19.3 µM | TGI [9]: 45.4 µM

— PubChem BioAssay (NCI)
